# Where two headings read alike, the source gives them in different places.
# Columns and labels:
# [1] = test system: A549 human lung cancer cells; assay: Trypan Blue cell viability/growth assay, A549 cells; type: cell-based; details: for Potentiation of anti-cancer activity by esterization: ester vs original acid; for fold more potent than original acid, growth of A549 cells: ester vs original acid (ARC, CA or Ketorolac)
# Description: (§1) A. Cell Lines: Human lung cancer (A549) cells carrying an oncogenic K-RAS mutant or murine melanoma (B16F10) cells
# (§2) B. Cell seeding in 96 well plate: In culture medium D-MEM with or without 10% fetal bovine serum.
# (§3) C. Inhibitor Stocks in DMSO (100 mM)
# (§4) D. Trypan Blue Assay for Cell Viability/Growth (4): The most commonly used MTT assay for cell viability/growth is not feasible for cells treated with triazolyl derivatives, mainly because these compounds are reduced by mitochondrial reductase in viable cells, just like MTT, and converted to a purple compound which would clearly interfere with the colorimetry on which MTT assay depends. Thus, a more classic method called Trypan Blue exclusion assay should be used for determining cell viability/growth of cells treated with all triazolyl derivatives. In this assay, only dead cells are stained with Trypan Blue, while viable cells exclude this blue dye.
# (§5) The assay was conducted as previously described. Briefly, A549 or B16F10 cells were seeded at 2×10^4 cells/well in 96 well plate for 24 hrs in the above medium, and then treated with one of the tested compounds in the same medium for 96 hrs. Cell were detached from the plate by a protease called accutase, and stained with Trypan blue, and the number of unstained (viable) cells was counted in a hemocytometer.
# [2] = ester vs parent acid (CA or UA); cited from earlier work
# melanoma (B16F10) cells [3] = assay: Melanin content assay (PAK1-dependent melanogenesis), B16F10 cells; type: cell-based, murine; details: alpha-MSH 100 nM stimulated; read-out: IC50 against the PAK1-dependent melanogenesis of melanoma (B16F10) cells
# Description: A. Cell line: Murine melanoma (B16F10) cells.
# B. Cell seeding in 96 well plate: In culture medium D-MEM supplemented with 10% […] FBS (fetal bovine serum) and 1% penicillin/streptomycin (10,000 U/mL and 100 μg/mL). 2×10^4 cells were seeded in each well of 96 well plate in the medium at 37° C. for 24 hrs in a humidified atmosphere containing 5% CO2.
# C. Inhibitor Stocks in DMSO (100 uM).
# E. Melanin content Assay (4): The assay was performed as previously described. Cells were seeded in a 96-well plate at a density 5×10^4 cells/well in culture medium containing D-MEM supplemented with 10% FBS, 1% penicillin/streptomycin, and cultured for 24 hrs. Then, the cells were treated with a melanogenic stimulating hormone called α-MSH (100 nM), and treated with one of tested compounds for 48 hrs. After the medium was removed, cells were dissolved in 100 μL of 1 N NaOH. The mixture was heated at 90° C. for 1 hr, and the melanin content was estimated by reading the absorbance at 405 nm.
# PAK1 = molecular target: T1, PAK1 (Homo sapiens, UniProt Q13153); assay: Anti-PAK1 activity in cell culture, Macaroni-Western (IP) ATP-Glo kinase assay; type: cell-based
# T1 construct: endogenous in cells; host or cells: A549 human lung cancer cells
# T1 sequence (Q13153 whole entry): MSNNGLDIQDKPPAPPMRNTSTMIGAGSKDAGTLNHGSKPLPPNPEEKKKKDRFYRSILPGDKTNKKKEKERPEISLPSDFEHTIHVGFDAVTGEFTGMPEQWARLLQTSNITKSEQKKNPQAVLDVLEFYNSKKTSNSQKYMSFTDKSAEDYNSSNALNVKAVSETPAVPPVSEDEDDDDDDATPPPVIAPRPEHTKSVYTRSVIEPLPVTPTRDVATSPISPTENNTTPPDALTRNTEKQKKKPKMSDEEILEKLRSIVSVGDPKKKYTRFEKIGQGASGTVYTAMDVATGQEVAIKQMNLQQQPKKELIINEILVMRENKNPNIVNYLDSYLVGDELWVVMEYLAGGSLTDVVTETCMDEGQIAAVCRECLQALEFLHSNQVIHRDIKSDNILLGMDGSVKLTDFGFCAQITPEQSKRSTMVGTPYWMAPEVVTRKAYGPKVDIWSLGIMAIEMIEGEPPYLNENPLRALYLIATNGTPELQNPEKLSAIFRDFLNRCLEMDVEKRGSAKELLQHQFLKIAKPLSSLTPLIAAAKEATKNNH
# Description: A. Cell line: Human lung cancer (A549) cells.
# B. Cell seeding in 6-well plate with the culture medium (D-MEM).
# C. Inhibitor Stocks in DMSO (100 mM).
# D. “Macaroni-western” (IP) ATP-Glo kinase assay: The kinase activity of PAK1 in A549 (or B16F100 cells was measured by a method called “Macaroni-Western” (IP) ATP-Glo kinase assay. Briefly, cells (2×10^5 cells/mL) were pre-cultured on 6-well plate for 24 hrs in the medium. Then cells were treated with a test compound in the same medium for additional 24 hrs. Cells were disrupted by lysis buffer containing 50 mM Tris-HCl pH 7.5 and 150 mM NaCl and 1% Triton-X. For the immunoprecipitation (IP) of PAK1, the cleared cell lysates were incubated with anti-PAK1 IgG (1:50 dilution) and protein A-agarose beads for 1-2 hrs in cold room with continuous shaking by a rotary mixer (Nissin, Suginami-ku, Tokyo, Japan). The resultant IP (PAK1) from each lysate was incubated with ATP-Glo kinase assay kit (Promega) in the presence of ATP and MBP (myelin basic protein) for 1 hr at 37° C., and the remaining ATP level was measured by the ATP-dependent Luciferin-Luciferase reaction which eventually generates a luminescence. The final suspension was centrifuged, and the supernatant was transferred to 96-well plate for reading. Luminescence was recorded by MTP-880Lab microplate reader (Corona, Hitachinaka-ku, Ibaraki, Japan) with an integration time of 0.5 s per well.
# EMT6 breast cancer cells = assay: Cell-permeability (intracellular uptake) assay by HPLC; type: in vitro ADME; details: for fold more cell-permeable than original acid: 100 uM, uptake during first 1 hr, lower bound
# Description: For measuring the uptake of both original acids and their esters into cells, a drug-resistant breast cancer cell line (EMT6) was chosen, as it survives the treatment with either acids or their esters at 100 uM for 24 hrs. The uptake of each compound (100 uM) into 1×10^5 cells mainly during the first 1 hr was quantitated by separation of either original acids or their esters taken by cells through HPLC column chromatography, and the amount of each compound was estimated by photometry at the wavelength 322 nm.
# recombinant human COX-2 = molecular target: T2, recombinant human COX-2 (Homo sapiens, UniProt P35354); assay: In vitro anti-COX-2 activity; type: biochemical
# T2 sequence (P35354 18-604): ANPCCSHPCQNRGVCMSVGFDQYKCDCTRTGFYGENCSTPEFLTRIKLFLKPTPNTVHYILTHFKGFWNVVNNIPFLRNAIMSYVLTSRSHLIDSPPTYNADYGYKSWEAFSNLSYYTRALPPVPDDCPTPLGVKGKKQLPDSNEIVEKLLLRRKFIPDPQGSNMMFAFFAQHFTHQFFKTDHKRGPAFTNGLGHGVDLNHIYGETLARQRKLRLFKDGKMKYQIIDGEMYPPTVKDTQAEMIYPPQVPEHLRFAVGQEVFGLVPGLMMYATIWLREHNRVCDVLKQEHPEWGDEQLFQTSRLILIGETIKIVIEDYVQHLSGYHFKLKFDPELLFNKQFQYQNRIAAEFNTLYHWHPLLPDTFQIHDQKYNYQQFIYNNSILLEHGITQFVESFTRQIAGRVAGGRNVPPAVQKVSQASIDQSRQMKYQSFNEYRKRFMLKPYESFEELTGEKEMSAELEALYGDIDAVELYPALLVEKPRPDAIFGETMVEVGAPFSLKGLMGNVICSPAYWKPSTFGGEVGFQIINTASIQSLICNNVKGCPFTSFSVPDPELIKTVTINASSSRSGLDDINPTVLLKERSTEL
# Description: The effect of Ketorolac and PRC-15K (both in racemic form) on COX-2 was assayed in vitro, essentially according to the procedure previously published (5). Briefly, the recombinant human COX-2 was treated with either Ketorolac or PRC-15K at concentrations ranging 5-200 nM for 2 or 5 min (depending on the chemical nature of the test compounds) at room temperature in the presence of arachidonic acid, to measure the remaining COX-2 activity at 590 nm. The COX-2 activity without these test chemicals was used as the negative control for calculating their anti-COX-2 activity.
# melanoma (B16F10) cells [4] = assay: Trypan Blue cell viability/growth assay, B16F10 cells; type: cell-based, murine
# Description: as §1, §2, §3, §4, §5
# [5] = test system: Human follicle dermal papilla (HFDP) cells; assay: Hair cell growth promoting (anti-alopecia) Trypan Blue assay, HFDP cells; type: cell-based
# Description: A. Cell line: Human follicle dermal papilla (HFDP) cells.
# B. Cell seeding in 96 well plate: In culture medium D-MEM medium containing 50 mL of papilla cell growth medium (PCGM), 0.5 mL of fetal calf serum (FSC), 0.5 mL of BPE, 0.25 mL of Cyp, and 0.25 mL of ITT in 51.5 mL total volume.
# C. Inhibitor Stocks in DMSO (100 μM).
# D. Trypan Blue assay for cell viability/growth (4): HFDP cells were collected and diluted in medium containing Dulbecco's modified minimum essential medium (D-MEM) and 10% fetal bovine serum (FBS) at cell density of 1×10^4 cell/mL. Then, 200 μL of cell suspension (2,000 cells/well) was transferred into each well of collagen-coated 96 well plate, and cells were incubated for 37° C., under 5% CO2 for 3 days. The medium was removed, and 200 μL of samples prepared in D-MEM only was added. After 4 days incubation, cell were detached from the plate by a protease called accutase, and stained with Trypan blue, and the number of unstained (viable) cells was counted in a hemocytometer.
# [6] = Homo sapiens, growth of A459 lung cancer cell line (so in the source), read-out: IC50 of Original Acids
# [7] = 96 hrs treatment, Trypan Blue exclusion, read-out: IC50 against the growth of A549 human lung cancer cells
structure (smiles),measurement,setting,value
"O=C(O)/C=C/c1ccc(O)c(O)c1 [CA, caffeic acid, reference compound]",IC50,[1]; [6],100000 nM
"O=C(/C=C/c1ccc(O)c(O)c1)OCCc1ccccc1 [CAPE, caffeic acid phenethyl ester]",fold more potent (cell-permeable) than parent acid,[2],10 fold
COc1ccccc1-n1cc(COC(=O)/C=C/c2ccc(O)c(O)c2)nn1 [PRC-15C],IC50,[1]; [7],225 nM
same,Potentiation of anti-cancer activity by esterization,[1],(>400 fold)
same,"fold more potent than original acid, growth of A549 cells",[1],over 400 fold
same,IC50,melanoma (B16F10) cells [3],225 nM
same,"anti-PAK1 activity in cell culture, inhibition",PAK1; at 1 μM,around 35%
same,fold more cell-permeable than original acid,EMT6 breast cancer cells,at least 20 fold
same,"fold more cell-permeable than original acid, probable upper estimate",EMT6 breast cancer cells; 'probably up to',up to 70 fold
"CC(C)=CCc1cc(C=CC(=O)O)cc(CC=C(C)C)c1O [ARC, 3,5-diprenyl-4-hydroxycinnamic acid, reference compound]",IC50,[1]; [6],25000 nM
COc1ccccc1-n1cc(COC(=O)C2CCn3c(C(=O)c4ccccc4)ccc32)nn1 (racemic) [PRC-15K],IC50,"[1]; A549, 50/50 racemic mixture, growth of human cancer cells, read-out: IC50",~24 nM
same,IC50,"[1]; Homo sapiens, A549, 96 hrs treatment, Trypan Blue exclusion, read-out: IC50 against the growth of A549 human lung cancer cells",24 nM
same,IC50,"[1]; Homo sapiens, growth of A459 lung cancer cell line (so in the source), read-out: IC50 of Esters",24 nM
same,Potentiation of anti-cancer activity by esterization,[1],(>500 fold)
same,"fold more potent than original acid, growth of A549 cells",[1],over 500 fold
same,times potent as much as compound 7,[1]; vs racemic ketorolac,more than 500 times
same,inhibition at 0.07 µM,PAK1; at 70 nM,~50%
same,"fold more potent than Ketorolac, anti-PAK1 activity in cell culture",PAK1; vs Ketorolac,over 30 fold
same,IC50,"recombinant human COX-2; in vitro, racemic form, read-out: IC50 against human COX-2",6 nM
same,"fold more potent than Ketorolac, anti-COX-2",recombinant human COX-2; vs Ketorolac,over 20 fold
same,fold more cell-permeable than original acid,EMT6 breast cancer cells,at least 10 fold
same,IC50,"melanoma (B16F10) cells [4]; Mus musculus, B16-F10, read-out: IC50 against the PAK1-independent growth of melanoma (B16F10) cells",5 nM
same,"fold more potent than Ketorolac, growth of B16F10 cells",melanoma (B16F10) cells [4]; vs Ketorolac,over 6000 fold
COc1ccccc1-n1cc(COC(=O)/C=C/c2cc(CC=C(C)C)c(O)c(CC=C(C)C)c2)nn1 [PRC-15A],IC50,[1]; [7],250 nM
same,Potentiation of anti-cancer activity by esterization,[1],(100 fold)
same,"fold more potent than original acid, growth of A549 cells",[1],100 fold
same,IC50,melanoma (B16F10) cells [3],250 nM
same,ED for the growth of human hair (HFDP) cells,[5]; growth promotion,20 nM
same,"fold more potent than ARC, growth of HFDP cells",[5]; vs ARC,1000 fold
same,"anti-PAK1 activity in cell culture, inhibition",PAK1; at 1 mM,around 45%
same,fold more cell-permeable than original acid,EMT6 breast cancer cells,at least 8 fold
"O=C(c1ccccc1)c1ccc2n1CCC2C(=O)O (racemic) [Ketorolac, 5-benzoyl-2,3-dihydro-1H-pyrrolizine-1-carboxylic acid, reference compound]",IC50,"[1]; Homo sapiens, A549, racemic mixture, our unpublished observation, read-out: IC50 against the growth of human cancer cells",13000 nM
same,IC50,[1]; [6],13000 nM

# Source: US10058618B2, “PAK1-blocking 1,2,3-triazolyl esters” (priority 2016, dated 2018)
